Reference: US20090263354A1, “Compositions and siRNAs for inhibiting C/EBPbeta” (Yeda Research and Development Co., Ltd., priority 2006, published 2009)

B1: FasL: Fas ligand, cytotoxic cytokine (protein, UniProt P48023 130-281, looked up)
Tumor necrosis factor ligand …: QIGHPSPPPEKKELRKVAHLTGKSNSRSMPLEWEDTYGIVLLSGVKYKKGGLVINETGLYFVYSKVYFRGQSCNNLPLSHKVYMRNSKYPQDLVMMEGKMMSYCTTGQMWARSSYLGAVFNLTSADHLYVNVSELSLVNFEESQTFFGLYKL

Legend:
[1] = tested on: p53; assay: Induction of cellular p53 by cell death inducers, immunoblotting; type: cell-based, human; settings: WISH cells; 24 h (TNFα plus IFN-γ 48 h)
Description: The following experiment was carried out in order to confirm that the protective effect of C/EBPβ from cell death inducers is independent of the transfection process. Thus, B16 mouse melanoma cells, stably transfected with an inducible C/EBPβ expression vector (Clone F-10.9) were obtained from M. Revel and J. Chebath, Weizmann Institute of Science, Israel. Induction of C/EBPβ expression was triggered by addition of the antibiotic doxycycline (1 μg/ml, 24 h, Sigma) to the culture medium and was evaluated by both RT-PCR and immunoblotting. RT-PCR was performed as follows: F-10.9 cells (10^6) were harvested and total RNA was extracted by using the Rneasy® kit- from QIAGEN. cDNA was prepared by using random hexamers (Invitrogen) and M-MLV Reverse Transcriptase (Promega) according to the manufacturer's instructions. PCR was performed with the following primers: mouse C/EBPβ, 5′-[…] and 5′-[…]. Amplifications were done by initial denaturation (95° C., 4 min), 27 cycles of denaturation (95° C., 80 s), annealing (57° C., 60 s) and extension (72° C., 80 s), and final extension (72° C., 5 min). The resulting PCR products were resolved by agarose (1%) gel electrophoresis. […] For immunoblotting, cells were washed three times with ice-cold PBS and immediately frozen in liquid nitrogen. Cell pellets were re-suspended in four packed cell volumes of cytoplasmic buffer (10 mM Hepes, pH 7.9, 10 mM NaCl, 0.2 mM EDTA, 5% glycerol, 1.5 mM MgCl2, 1 mM DTT, 0.5 mM PMSF, 50 mM NaF, 0.1 mM Na3VO4, 2 mM EGTA, 10 mM Na2MoO4, 2 μg/ml each of leupeptin, pepstatin, and aprotinin). The suspension was freeze/thawn twice, incubated on ice for 20 min and then centrifuged (3,000×g, 10 min, 4° C.). The supernatant containing the proteins was collected and protein concentration was determined by a BCA Protein assay kit (Pierce), using BSA as a standard. Protein extracts (10 μg) were boiled in SDS/PAGE sample buffer containing 25 mM DTT and the supernatant was resolved by SDS/PAGE (10% acrylamide). The gel was then blotted onto a nitrocellulose membrane and proteins were detected with the indicated antibodies. Immune complexes were identified with a Super Signal detection kit (Pierce.).
It was recently reported that C/EBPβ binds to p53 and inhibits its activity, part of which could be induction of apoptosis. We carried out several experiments to find out if the protective effect of C/EBPβ over-expression against apoptosis induced by cell death inducers involves inhibition of p53. Initially, we determined which of the cell death inducers used for induction of apoptosis elevates the level of cellular p53. For this purpose, WISH cells were treated with; etoposide (50 μM for 24 h); MG262 (0.1 μM, for 24 h); TNFα (100 ng/ml) plus IFN-γ (1000 IU/ml) for 48 h; doxorubicin (1.8 μM, for 24 h); vincristine (0.1 μg/ml, for 24 h); FasL (60 ng/ml, 24 h); tunicamycin (1 μg/ml, for 24 h) or ALLN (26 μM, for 24 h), and extracts of these cells were subjected to immunoblotting with anti p53 (mab dd1+1801, 1:40 from M. Oren, WIS) as described in Example 6.

[2] = tested on: WISH cells; assay: Protection of WISH cells from cell death by pre-incubation with IGF-1 or IL-6; type: cell-based, human
Description: WISH cells were pre-incubated with IGF-1 (200 ng/ml) for the indicated times. Doxorubicin (2 μM, for 16 h) was then added. […] The same results were obtained when apoptosis was induced by MG262, TNF-α plus IFN-γ, and tunicamycin (data not shown).
WISH Cells (30,000 cells/well) were pre incubated with 6.25, 12.5, 25, 50, 100, 200, 300, 400, 500, or 1000 IU/ml of IL-6 for 6 h and then 26 μM ALLN was added for 48 h.

Row | Molecule | induction of p53 (immunoblotting with anti p53) [1] | also measured
1 | CC(C)C[C@H](NC(=O)[C@H](CC(C)C)NC(=O)[C@H](CC(C)C)NC(=O)OCc1ccccc1)B(O)O [MG262] | extensive induction of p53 | –
2 | COc1cccc2c1C(=O)c1c(O)c3c(c(O)c1C2=O)C[C@@](O)(C(=O)CO)C[C@@H]3O[C@H]1C[C@H](N)[C@H](O)[C@H](C)O1 [doxorubicin] | extensive induction of p53 | –
3 | COc1cc([C@@H]2c3cc4c(cc3[C@@H](O[C@@H]3O[C@@H]5CO[C@@H](C)O[C@H]5[C@H](O)[C@H]3O)[C@H]3COC(=O)[C@H]23)OCO4)cc(OC)c1O [etoposide] | did not induce p53 | –
4 | CC[C@]1(O)C[C@H]2CN(CCc3c([nH]c4ccccc34)[C@@](C(=O)OC)(c3cc4c(cc3OC)N(C=O)[C@H]3[C@@](O)(C(=O)OC)[C@H](OC(C)=O)[C@]5(CC)C=CCN6CC[C@]43[C@@H]65)C2)C1 [vincristine] | did not induce p53 | –
5 | IGF-1: growth factor IGF-1 added to the culture medium | – | protection of WISH cells from doxorubicin ([2]; IGF-1 200 ng/ml pre-incubation, doxorubicin 2 μM, 16 h): did not protect; protection of WISH cells from other apoptosis inducers ([2]; IGF-1, apoptosis induced by MG262, TNF-α plus IFN-γ, and tunicamycin, data not shown): same results
6 | IL-6: cytokine IL-6 | – | protection from apoptosis induced by ALLN ([2]; IL-6 6.25-1000 IU/ml, 6 h before ALLN 26 μM, 48 h): did not protect
7 | tunicamycin | did not induce p53 | –
8 | B1 | did not induce p53 | –
